Results: patent US20070197643A1, “USE OF (Z)-2-CYANO-3-HYDROXY-BUT-2-ENOIC ACID-(4'-TRIFLUOROMETHYLPHENYL)-AMIDE FOR TREATING INFLAMMATORY BOWEL DISEASE” (AVENTIS PHARMACEUTICALS INC., priority 2004, published 2007)

Columns and labels:
[1] = test system: multiple sclerosis; details: in vivo; cited from earlier work
[2] = test system: inflammation; details: animal models of inflammation; cited from earlier work
[3] = test system: immune cells and cell lines; details: wide variety of immune cells and cell lines; cited from earlier work
[4] = target: dihydrooate dehydrogenase (Homo sapiens, UniProt Q02127); details: enzyme essential for the synthesis of pyrimidines; cited from earlier work
Sequence of dihydrooate dehydrogenase (Q02127 whole entry): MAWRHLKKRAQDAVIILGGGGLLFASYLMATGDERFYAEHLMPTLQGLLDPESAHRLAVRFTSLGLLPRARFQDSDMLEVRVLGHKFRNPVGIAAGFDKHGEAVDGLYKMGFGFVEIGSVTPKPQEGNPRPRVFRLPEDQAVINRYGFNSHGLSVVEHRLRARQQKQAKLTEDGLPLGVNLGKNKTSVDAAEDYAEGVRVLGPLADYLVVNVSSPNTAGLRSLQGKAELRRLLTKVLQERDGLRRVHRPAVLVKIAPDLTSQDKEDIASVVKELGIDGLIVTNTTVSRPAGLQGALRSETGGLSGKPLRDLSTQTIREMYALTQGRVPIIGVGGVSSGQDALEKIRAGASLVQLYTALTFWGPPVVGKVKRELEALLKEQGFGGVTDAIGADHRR

[5] = amount entering the intestinal lumen after administration; assay type: in vivo; details: following administration of teriflunomide
[6] = test system: Crohn's disease; details: small number of patients with azathioprine intolerance; cited from earlier work

Row | SMILES | efficacy in preclinical models of multiple sclerosis [1] | anti-inflammatory activity [2] | antiproliferative effects [3] | inhibition of dihydrooate dehydrogenase [4] | amount of teriflunomide entering the intestinal lumen [5] | treatment of Crohn's disease [6]
1 | C/C(O)=C(\C#N)C(=O)Nc1ccc(C(F)(F)F)cc1 [Teriflunomide, (Z)-2-cyano-3-hydroxy-but-2-enoic acid-(4′-trifluoromethylphenyl)-amide] | demonstrated efficacy | anti-inflammatory activity | antiproliferative effects | inhibits | high amounts | –
2 | Cc1oncc1C(=O)Nc1ccc(C(F)(F)F)cc1 [leflunomide, 5-methylisoxazole-4-carboxylic-(4-trifluoromethyl)-anilide] | – | – | – | – | – | successful use
